Our source for the IC50 values is patent US10864202B2, “Inhibitors of lysine specific demethylase-1” (CELGENE QUANTICEL RESEARCH, INC., priority 2014, dated 2020).

A value given as a limit tells only on which side of the number the result lay.

One assay concerns the target human LSD1 (Homo sapiens (Human), UniProt O60341). Nature of the assay: In vitro enzyme inhibition assay LSD-1 (TR-FRET). The assay is classed as biochemical. Conditions: full-length human LSD1, H3K4me1-biotin peptide. The protocol:
This assay determines the ability of a test compound to inhibit LSD1 demethylase activity.
The enzymatic assay of LSD1 activity is based on Time Resolved-Fluorescence Resonance Energy Transfer (TR-FRET) detection.
The ability of the compounds disclosed herein to inhibit LSD1 activity was quantified and the respective IC50 value was determined.

A further assay has as its system THP-1 (AML) cells. Put plainly: LSD1 CD11b cellular assay (flow cytometry). It counts as cell-based. Particulars: Homo sapiens, 96 h; CD11b expression in THP-1 cells, 4 days incubation. As for the experimental part:
To analyze LSD1 inhibitor efficacy in cells, a CD11b flow cytometry assay was performed. LSD1 inhibition induces CD11b expression in THP-1 (AML) cells which can be measured by flow cytometry. […] LSD1 test compounds were serially diluted in DMSO. The dilutions were added to each well accordingly to a final concentration of 0.2% DMSO. The cells were incubated at 37 degrees Celsius in 5% CO2 for 4 days. 250 μL of each well was transferred to a well in a 96 well round bottom plate. The plate was centrifuged at 1200 rpm at 4 degrees Celsius in a Beckman Coulter Alegra 6KR centrifuge for 5 minutes. The media was removed leaving the cells at the bottom of the wells. The cells were washed in 100 μL cold HBSS (Hank's Balanced Salt Solution) plus 2% BSA (Bovine Serum Albumin) solution and centrifuged at 1200 rpm at 4 degrees Celsius for 5 minutes. The wash was removed. […] The cells were centrifuged and washed two times in 100 μl HBSS plus 2% BSA. After the final spin the cells were resuspended in 100 μL HBSS plus 2% BSA containing 1 ug/mL DAPI (4′,6-diamidino-2-phenylindole). The cells were then analyzed by flow cytometry in a BD FACSAria machine. Cells were analyzed for CD11b expression. The percent of CD11b expressing cells for each inhibitor concentration was used to determine an IC50 curve for each compound analyzed.

In turn, `N#Cc1ccc(-c2cc3c(ccn3CC3(F)CCNC3)nc2N2CCOCC2)cc1` (stereo not shown) [Example 8, 4-[1-[(3-fluoropyrrolidin-3-yl)methyl]-5-morpholin-4-ylpyrrolo[3,2-b]pyridin-6-yl]benzonitrile] displayed an IC50 on human LSD1 of 100 to 1000 nM.
Still for that read-out and setting: with `Cc1ccc(-c2cnc(NCC3CCCNC3)nc2-c2ccc(C#N)cc2)cc1` (racemic) [Example 31, (±)-4-5-(4-methylphenyl)-2-[(piperidin-3-ylmethyl)amino]pyrimidin-4-yl]benzonitrile] the figure was less than 100 nM.
Same read-out and setting: to `N#Cc1ccc(-c2nc(N3CC4CNCC(C3)O4)ncc2-c2ccc(F)cc2)cc1` [Example 42, 4-[5-(4-fluorophenyl)-2-{9-oxa-3,7-diazabicyclo[3.3.1]nonan-3-yl}pyrimidin-4-yl]benzonitrile] belongs 100 to 1000 nM; to `Cc1ccc(-c2cnc(N[C@@H]3C[C@H]4CNC[C@H]4C3)nc2-c2ccc(C#N)cc2)cc1` [Example 27], 100 to 1000 nM; to `N#Cc1ccc(-c2cc3c(ccn3C[C@H]3CCNC3)nc2Cl)cc1` [Example 4], 100 to 1000 nM.
Same read-out and setting: to `N#Cc1ccc(-c2nc(NC[C@H]3CCNC3)ncc2Cl)cc1` [Example 17, 4-(5-chloro-2-{[(3S)-pyrrolidin-3-ylmethyl]amino}pyrimidin-4-yl)benzonitrile] belongs 100 to 1000 nM; to `Cc1ccc(-c2cnc(N3CC4CNCC(C3)O4)nc2-c2ccc(C#N)cc2)cc1` [Example 41, 4-[5-(4-methylphenyl)-2-{9-oxa-3,7-diazabicyclo[3.3.1]nonan-3-yl}pyrimidin4-yl]benzonitrile], 100 to 1000 nM.
Compound `Cc1ccc(-c2cnc(NCC3CNCCO3)nc2-c2ccc(C#N)cc2)cc1` (racemic) [Example 33, (±)-4-[5-(4-methylphenyl)-2-[(morpholin-2-ylmethyl)amino]pyrimidin-4-yl]benzonitrile] returned an IC50 against human LSD1 of less than 100 nM.
With `N#Cc1ccc(-c2nc(NCC3CCNC3)ncc2C#CC2CC2)cc1` (stereo not shown) [Example 26], the half-inhibitory concentration (IC50) in the assay with THP-1 (AML) cells lay within 100 to 1000 nM.
Compound `N#Cc1ccc(-c2cc3c(ccn3C[C@@H]3CCNC3)nc2N2CCOCC2)cc1` [Example 6] registered an IC50 on human LSD1 of 100 to 1000 nM.
